Consider four substances from patent US10611799B2, “Anti-endotoxin polypeptide” (priority 2017, dated 2020).

“Also recorded” adds a separate entry of the source. No end group written: not given here.

For series [1], the system named is LPS (Control Standard Endotoxin). The series is described as follows: Binding and neutralization of LPS, Limulus Amebocyte Lysate (LAL) assay. It counts as biochemical. The settings on record: peptide 8-128 μg/mL, CSE 5EU. Here is the method: The abilities of the anti-endotoxin polypeptides to bind and neutralize LPS were assessed using Limulus Amebocyte Lysate (LAL) assay (Cape Cod Inc, East Falmouth, Mass., USA). 25 μL of different peptide concentration (128, 64, 32, 16, and 8 μg/mL) were mixed with 25 μL CSE (Control Standard Endotoxin) (5EU) in a 96-well plate, and 50 μL of Pyrochrome® reagent was added to wells immediately. The absorbance at 405 nm was measured by microplate reader at 37° C. for 25 minutes.

A short description of series [2]: Peptide-induced calcein leakage of POPC/POPG LUVs. How it is done:
(§1) In this embodiment, the large unilamellar vesicles (LUVs) of POPC/LPS (POPC:LPS=12.5:1 mol/mol), POPC/cholesterol (POPC:cholesterol=2:1 mol/mol), and POPC:POPG (POPC:POPG=3:1 mol/mol) were prepared by the extrusion method with Avanti small-volume extrusion apparatus (Avanti Polar Lipid). Calcein-filed LUVs were prepared by calcein-containing buffer (70 mM calcein and 10 mM Tris at pH 7.4). Peptide-induced calcein leakages were measured by Perkin-Elmer luminescence spectrofluorimeter at excitation and emission wavelengths of 496 and 515 nm, respectively. Leakage is expressed as a percentage relative to the total amount of dye released by addition of 100 mg/mL of Triton X-100, which represented 100% leakage (the maximum fluorescence intensity).
(§2) The degree of leakage induced by various concentrations of polypeptides was estimated by: % leakage=(F−F0)/(Fr−F0)×100%, wherein the F0 is the initial fluorescence intensity observed without peptide, and Fr is the fluorescence intensity of 100% leakage.

In series [3] the test system is gram-positive and negative bacteria. The series is described as follows: Antibacterial activity and salt resistance, broth microdilution (MIC). It counts as cell-based. How it is done:
(§3) The antibacterial activities were determined by the standard broth microdilution method of National Committee for Clinical Laboratory Standards with the MH and LYM broth. MH or LYM broth with 50, 100, 200, or 300 mM NaCl (containing 5.4 mM KCl, 5.6 mM Na2HPO4, 0.5 mM MgSO4, and 1.0 mM sodium citrate, 0.4 mg of ZnCl2, 2.0 mg of FeCl3.6H2O, 0.1 mg of CuSO4.5H2O, 0.1 mg of MnSO4.H2O, 0.1 mg of Na2B4O7.10H2O, 700 mg of amino acid mixtures without tryptophan (Clontech), and 20 mg of L-Tryptophan, 2% vitamin mixture (100×, Sigma) and glucose at final concentration of 2%) were used to serially dilute the anti-endotoxin polypeptide of the present invention to obtain anti-endotoxin polypeptide solutions with a concentration ranging from 3,200 to 100 μg/mL.
(§4) 1 μL of peptide solutions were mixed with 99 μL inoculums (5×10^5 CFU/mL) in polypropylene 96-well plates, respectively. The turbidity at OD600 nm was determined by ELISA plate reader (Thermo Max, Molecular Devices, Sunnyvale, Calif.). The absorbance of culture medium and inoculum without peptides were used as the negative and positive control, respectively. […] All peptides were tested in triplicate. […] KR12AGPKR6 peptide was very effective against bacteria in LYM broth condition (MIC=about 2 μg/mL).

The test system of the next series is Acinetobacter sp. The series is described as follows: Antibacterial activity, broth microdilution, Acinetobacter sp. Format: cell-based. Here is the method:
as §3, §4
Background: Dilution methods test growth across graded concentrations, often in twofold steps.

Series [4] in a line: Peptide-induced calcein leakage of POPC/LPS LUVs. Here is the method:
as §1, §2

The nature of series [5]: LPS aggregation, dynamic light scattering. The following applies: peptide 8 and 16 μg/mL, LPS 25 μM. Here is the method: The LPS molecule were dissolved in chloroform:methanol (2:1) then the stock solution was sonicated at 40° C. for 20 minutes and then kept at 4° C. overnight. The stock solution were diluted to 25 μM by using 20 mM sodium phosphate buffer with 150 mM sodium chloride and then at 4° C. overnight for use. Peptide concentration was diluted to 8 or 16 μg/mL. After the LPS solution was interacted with the peptide solution, the particle size and distribution analysis was measured by dynamic light scattering in Malvern Zetasizer ZS (Malvern, UK).

Series [6] has as its system NO production in J744A.1 cells. Put plainly: Inhibition of LPS-induced NO production (Griess reagent). The settings on record: LPS 150 ng/mL, peptide 2-32 μg/mL, 24 hours. Format: cell-based. How it is done: (§5) J744A.1 cells (3×10^5 cells) were seeded in a 24-well plate and incubated for 24 hours. Cells were washed by PBS and LPS (E. coli 026:B6 (SIGMA, 150 ng/mL)) and the anti-endotoxin polypeptide of the present invention (2-32 μg/mL) were added to the wells. After 24 hours treatment, culture supernatant was harvested and centrifuged at 1,000 rpm for 10 minutes. 50 μL of culture supernatant was mixed with 50 μL Griess reagent (SIGMA) in a 96-well plate and incubated at room temperature for 10 minutes. The absorbance at 540 nm was measured and the NO concentration was calculated. Additionally, the concentration of TNF-α in the culture supernatant was evaluated using ELISA kits (eBiosciences).
Background: Griess reagent forms a coloured azo dye with nitrite.

Series [7] in a line: POPC/LPS LUVs aggregation, dynamic light scattering. The settings on record: peptide 8 and 16 μg/mL.
For series [8], the system named is TNF-α release in J744A.1 cells. Put plainly: Inhibition of LPS-induced TNF-α release (ELISA). The following applies: LPS 150 ng/mL, peptide 2-32 μg/mL, 24 hours. It counts as cell-based. How it is done: as §5
A short description of another series: Cytotoxicity, MTT assay. Format: cell-based. The settings on record: mouse, J744A.1 cells, 64 μg/mL, read-out: survival rate. How it is done:
In this embodiment, the cytotoxicity was evaluated by MTT assay. J744A.1 cells were seeded in a 96-well plate with 10^4 cells/100 μL/well and incubated for 24 hours. After removing the medium, 100 μL of fresh medium containing anti-endotoxin polypeptide (2 to 64 μg/mL) was added to the wells. After 24 hours incubation, the fresh medium with 0.5 mg/mL MTT was added and incubated for 3 hours. After the medium/MTT was removed, DMSO was added at 100 μL for dissolving the formazan crystal. Cell survival rate was calculated by measuring the absorbance at 450 nm using Multi-labeled Microplate Reader (VICTOR 3).
(Tetrazolium dyes change colour on reduction, which living cells bring about.)

The subject of series [9] is E. coli O26:B6 LPS-induced endotoxemia. Put plainly: Mouse model of endotoxemia. The settings on record: 18 mg/kg LPS plus 10 mg/kg peptide i.p. Format: in vivo, C57BL/6 mice. How it is done:
5-week old male C57BL/6 mice were purchased from National Laboratory Animal Center (Taiwan). Mice were divided into three groups (five in each group) with intraperitoneal (i.p.) injection of (a) 18 mg/kg of body weight E. coli O26:B6 LPS, (b) 18 mg/kg body weight LPS plus 10 mg/kg peptide, and (c) no treatment. Blood was collected via tail vein 1.5 hours after injection. Whole blood was centrifuged at 3,000 rpm at 4° C. for 10 minutes. After 24 hours, all mice were sacrificed. The lungs were removed and fixed in 4% formaldehyde buffer, and deparaffinized in UltraClear buffer (J. K. Baker) and graded ethanol. Histology of lung sections was performed by hematoxylin and eosin (H&E) staining. Tissue images were captured using light microscope (Eclipse E400, Nikon) with digital microscopy camera (AxioCam ICc 5, ZEISS).

[10] abbreviates: relative to Triton X-100 = 100%.

KRIVQRIKDFLRAGPIKDFLR [KR12AGPKR6]: the “LPS-neutralizing activity (LAL assay)” value in [1] is on record as “only small effects”. Moreover, the calcein leaking activity result in [2] and in series [4] was “show leaking activities; also recorded: does-dependent calcein leaking activities” in each case. The antibacterial activity entry in series [3] (300 mM salt condition) is “inactive totally”. For the same substance, the “antibacterial effectiveness compared to other bacteria strain” value with Acinetobacter sp. is “more effective”. The “LPS aggregation and particle size” value in series [5] was “did not aggregate LPS and change particle size”.
On to “KRIVQRAGPIKDFLR (The anti-endotoxin polypeptide synthesized from the laboratory) [KR15AGP]”, for which the “LPS-neutralizing activity (LAL assay)” value in series [1] is “only small effects”. Further, in [3] (MH or LYM broth), the antibacterial activity result is on record as “did not show any activity”. For the same substance, the “LPS aggregation and particle size” value in series [5] was “did not aggregate LPS and change particle size”.
With “KRIVQRIKDFLRAGPRRLVRI (The anti-endotoxin polypeptide synthesized from the laboratory) [KR12AGPVR6]”, the “LPS-neutralizing activity (LAL assay)” value in [1] is on record as “only small effects”. Also, the calcein leaking activity entry in [2] and in series [4] was “show leaking activities; also recorded: does-dependent calcein leaking activities” each time. Moreover, the antibacterial activity entry was “lost its activities” in series [3] (200 mM NaCl) and “high activities” in series [3] (low NaCl condition). In addition, the “antibacterial effectiveness compared to other bacteria strain” value in the series with Acinetobacter sp. is listed as “more effective”. Also, the “LPS aggregation and particle size” value in series [5] was “did not aggregate LPS and change particle size”.
With “Ac-KRIVQRIKDFLRAGPRRWWRW-NH2 (N-terminus and C-terminus assumed) [KR12AGPWR6]”, the “inhibition of NO production” value in [6] is “inhibit concentration-dependently”. The “LPS-neutralizing activity (LAL assay)” value in series [1] was “better LPS-neutralizing activity; also recorded: neutralize downstream reaction dose-dependently”. Moreover, the “POPC/LPS LUVs aggregation and particle size” value in series [7] was “promoted”. Further, the “inhibition of TNF-α release” value in [8] is “inhibited”. The calcein leaking activity result in series [2] and in series [4] was “show leaking activities; also recorded: does-dependent calcein leaking activities” throughout. For the same substance, the calcein leakage in series [2] (setting [10]) is on record as roughly 70%; in series [4] (setting [10]), “about 80%”. Further, in the series “Cytotoxicity, MTT assay”, the viability at 24 h, 64 µg/mL is roughly 70%. Moreover, the “minimum inhibitory concentration (MIC)” value in series [3] (high salt conditions) was 2 to 4 µg/mL. The “antibacterial effectiveness compared to other bacteria strain” value with Acinetobacter sp. is given as “more effective”. The “level of TNF-α in blood” value in [9] (blood 1.5 hours after injection) is given as “significantly lower; also recorded: suppress”. Also, the “proliferation of alveolar epithelial cells and pulmonary hemorrhage (lung histology)” value in series [9] (lungs after 24 hours, H&E) is listed as “significantly decreased; also recorded: improve”. Also, in series [5], the “LPS aggregation and particle size” value is listed as “promoted”.
